From BindingDB's records for patent US20240254093 (Heptares Therapeutics Limited, 2024)

Molecular target: G-protein coupled receptor 35 (Homo sapiens, UniProt Q9HC97)
Test: Human GPR35a Isoform Binding Assay
Procedure: Overexpression of Human GPR35a Baculovirus in HEK293f cells at a cell density of 2.5 106 cells/mL and a multiplicity of infection of 2.5 over 24 h in Pro293 (Lonza)+5% FBS, 1% Glutamax and 0.4% Pen/Strep. Cells harvested and centrifuged at 2500 RPM for 10 mins at 4 C. The supernatant was then poured off and the pellet stored at +-80 C. The pellet was defrosted and re-suspended in 15 mL of homogenising buffer (20 mM HEPES, 10 mM EDTA, pH 7.4). Then homogenised in mechanical homogeniser (VMR) for 10 seconds. The membrane was centrifuged in centrifuge tubes at 40,000 g for 15 mins at 4 C. The supernatant was poured away and re-suspended in 15 mL of homogenising buffer. Homogenised for 20 seconds. The membrane was centrifuged at 40,000 g for 45 mins at 4 C. The membrane was re-suspended in 3 mL of storage buffer (20 mM HEPES, 0.1 mM EDTA, pH 7.4) mixing well. The resulting membranes were then stored at +-80 . […] 0.1 uM FAC Lodoxamide was added in order to allow non-specific binding to be calculated. […] Plates were dried prior to 50 ul/well scintillant added, sealed and radioactivity measured using a MicroBeta analyser. IC50 values were derived from the inhibition curve and affinity constant (Ki) values were calculated using the Cheng-Prussoff equation, where; pKi=+-log 10 Ki.

G-protein coupled receptor 35, sequence (Q9HC97 whole entry, canonical isoform): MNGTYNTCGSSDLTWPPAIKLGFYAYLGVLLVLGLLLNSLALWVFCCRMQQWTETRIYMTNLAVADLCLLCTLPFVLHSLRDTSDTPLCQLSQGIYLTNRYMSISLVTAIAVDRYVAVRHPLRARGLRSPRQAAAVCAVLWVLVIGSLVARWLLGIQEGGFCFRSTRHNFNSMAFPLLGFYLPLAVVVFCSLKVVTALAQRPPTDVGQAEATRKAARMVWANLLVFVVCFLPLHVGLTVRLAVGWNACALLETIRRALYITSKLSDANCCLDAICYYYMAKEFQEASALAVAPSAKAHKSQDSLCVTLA

`O=c1c(O)c(Nc2cccc(-c3nn[nH]n3)c2)c1=O` [US20240254093, Example 1] gave a Ki of 9.81 nM.
`O=c1c(O)c(Nc2cc(-c3ccccc3)cc(-c3nn[nH]n3)c2)c1=O` [US20240254093, Example 3] showed a Ki of 0.35 nM.
